Patent US20140235542A1, “MODULAR, BIOACTIVE PEPTIDES FOR BINDING NATIVE BONE AND IMPROVING BONE GRAFT OSTEOINDUCTIVITY” (WISCONSIN ALUMNI RESEARCH FOUNDATION, priority 2013, published 2014)
Square brackets hold non-standard residues; d marks the D form. Ends that are not written are not given here. Gla = N[C@@H](CC(C(=O)O)C(=O)O)C(=O)O

Experiments:
[1] = Binding of VEGF peptides to HA particles / HA slab
Description: The binding behavior of the peptides (both modular peptide, VEGF-OCN (SEQ ID NO:18), and VEGF-mimic) were analyzed and compared as described above. The amount of bound VEGF-OCN on the HA particle increased with peptide concentration and reached saturation at 15 μM (FIG. 8A).

[2] = system: mouse yolk sac endothelial C166-GFP cells; test: C166-GFP cell proliferation on peptide-treated HA slabs (CYQUANT); format: cell-based; conditions: 2-day culture on HA slab incubated in peptide solution
Description: Cells were again seeded at a density of 2×10^4 cells/cm^2 (4×10^4 cells per well) in 24-well plate. Prior to seeding, HA slabs (1 cm×1 cm) were incubated in peptide solution (PBS) for four hours at 37° C. and copiously rinsed with deionized water, and then placed in a well of the 24-well plate. After 1-day culture, cells were treated with 2 μM calcein AM solution, and imaged using Olympus IX-51 microscope.
Additionally, a cell number count of the C166-GFP cells as cultured in the presence of VEGF-OCN or VEGF mimic was determined For the cell count, cells were seeded at a density of 5×10^3 cells/cm^2 (1×10^4 cells per well) in a 24-well plate. After 2-day culture, cells were detached from the HA slab and cell number was assessed using CYQUANT assay.

[3] = Release kinetics of modular peptides from HA-coated film; conditions: after 5 days, PBS, 37° C.
Description: To quantify release kinetics of 5(6) FAM-conjugated modular peptides from HA-coated film, the films were first incubated in solutions containing 250 μM (˜500 μg) of each peptide (eBGu1, eBGu3, eBGa1, or eBGa3) to allow for binding (as described above), then incubated in 500 μl of PBS buffer at 37° C. with constant agitation for 5 days (eBGu1 and eBGu3 peptides) or 10 weeks (eBGa1 and eBGa3 peptides), respectively. Whole buffer solutions were changed at indicated time points and the amount of peptide released from the HA-coated film was determined via fluorescence analysis and comparison with standards containing known amounts of 5(6)-FAM. The fluorescent images of fluorescently-labeled peptides bound to HA-coated films were obtained using an Olympus IX51 fluorescence microscope (Olympus, Center Valley, Pa.).

[4] = Binding of 5(6)-FAM-conjugated modular peptides to HA-coated PLG films; conditions: 500 μg (1 mg/ml) 5(6)-FAM-conjugated peptide in PBS, 4 hr, 37° C., constant agitation
Description: Poly (lactide-coglycolide) (PLG) films were prepared via a solvent casting process in which PLG (85:15) pellets were dissolved in chloroform (50 mg/ml), added to a PTFE dish, and dried for 2 days. The films were further dried at 50-55° C. for 4 hr to remove residual solvent and samples were cooled to room temperature. Square films (1 cm^2) were manually cut out of the resulting PLG film sheets. A “bone-like” HA-based material layer was grown on the PLG films using a direct deposition technique by biomimetic mineralization in modified simulated body fluid (mSBF).
To measure the binding efficiency of modular peptides to the HA-coated PLG films and to gain preliminary insight into the properties that influence modular peptide immobilization, 1 cm^2 HA-coated PLG films was first exposed to PBS solutions containing 500 μg (1 mg/ml) of 5(6) FAM-conjugated eBMP-2, eBGu1, eBGu3, eBGa1, or eBGa3 modular peptide solution (See Table 1 for definitions of these abbreviations). The films were incubated in peptide solutions with constant agitation for 4 hr at 37° C., and the amount of free peptide remaining was determined by measuring the fluorescence emission of the solution (excitation: 494 nm; emission 519 nm) using a Synergy HT Multi-Detection Microplate Reader (BioTek, Winooski, Vt.), and comparing this emission to standard samples with known concentrations of 5(6)-FAM. To further characterize surface immobilization of the peptide with the highest binding efficiency—the eBGa3 peptide-1 cm^2 HA-coated films were incubated in various concentrations (50-750 nM) of 5(6)-FAM-conjugated eBGa3 peptide for 4 hr with constant agitation at 37° C. The amount of peptide bound to HA-coated film was again determined by fluorescence analysis, as described above.

[5] = Binding of rhodamine-labeled peptide to cortical bone; parameters: species or system sheep
Description: The native bone used were harvested from sheep tibia and bovine sternum. Cortical (compact) bone slices were collected from sheep tibia with periosteum removed, and trabecular (cancellous, spongy) bone cores were drilled out from bovine sternum under sterile conditions.
The peptide binding to native bones was tested in three different experiments. In the first experiment, the cortical bone slices were incubated in modular peptide solution (0.5 mL, PBS) with concentrations of 50, 100, 200 and 300 μg/mL. The incubation was continued in a static condition for a period of 0.5, 1, 2 and 3 hours. For another experiment, the trabecular bone cores were placed in the chamber of bone bioreactor where the peptide solution prepared in DMEM (100 μg/mL, 6.5 mL) was continuously circulated through the chamber for a time period of 2, 4, 6, 8 and 10 hours. In the last experiment, mBMP was bound in a spatially controlled manner by dip-coating, spotting or writing with mBMP solution on native bone tissues. Following each experiment, the bones were rinsed with PBS to remove unbound peptide and their fluorescence images were captured using a Typhoon fluorescence scanner (GE healthcare) or a Nikon Eclipse Ti inverted microscope. To quantify the fluorescence intensity, the images were converted into 8-bit using ImageJ to present the intensity level of each pixel in the range of 0 to 255. The mean pixel intensity of a selected region of interest was considered to be proportional to the amount of peptide bound.
To examine mBMP binding to cortical bone without periosteum (ca. 4 mm×7 mm×1.5 mm) from the shaft of sheep tibia, the bone tissue was incubated in mBMP solution prepared in phosphate buffered saline (PBS). The binding of mBMP was concentration-dependent for each incubation time tested (FIGS. 12 and 13A). The quantity of mBMP binding was proportional to the solution concentration, which was clearly observed through all concentrations at 0.5 hour. However, this dependence was not apparent at higher concentrations at later time points. […] The insignificant dependence on the incubation time is likely attributed to the rapid binding of mBMP to native bone tissue.

binding efficiency on the HA-coated PLG films [4] [%] | Substance | peptide released from HA-coated films [3] [%] | further results
10.3±4.7 | KIPKASSVPTELSAIATLYLAAAAEPRRAVAAL [eBGu1, modular BMP-2/OCN peptide with one Glu residue] | 98.89±18.84 | –
7.6±7.8 | KIPKASSVPTELSAISTLYLAAAAEPRREVAEL [eBGu3, modular BMP-2/OCN peptide with Glu in place of Gla at three positions] | 93.33±17.24 | dependence of binding to cortical bone on concentration and incubation time ([5]; 50-300 μg/mL in PBS, 0.5-3 hours): independent of incubation time and peptide concentration; amount of peptide bound to cortical bone ([5]; each experimental condition tested): significantly less than that of mBMP

More lines, now with the values behind:

Substance | binding efficiency on the HA-coated PLG films [4] [%] | peptide released from HA-coated films [3] [%] | further results
KLTWQELYQLKYKGI-GGGAAAA-γEPRRγEVAγEL (KLTWQELYQLKYKGIGGGAAAA[Gla]PRR[Gla]VA[Gla]L) [VEGF-OCN] | – | – | peptide concentration at which bound amount on HA particle reached saturation ([1]; HA particles): 15 µM; effect of peptide-treated HA slab on cell number [2]: promoted cell proliferation
KLTWQELYQLKYKGI [VEGF-mimic, VEGF helical region mimic first synthesized by Pedon, et al, reference compound] | – | – | amount of peptide bound to HA slab ([1]; HA slab, qualitative comparison): much less than that of VEGF-OCN
KIPKASSVPTELSAISTLYLAAAAγEPRRAVAAL (KIPKASSVPTELSAISTLYLAAAA[Gla]PRRAVAAL-NH2; N-terminus assumed; SMILES CC[C@H](C)[C@H](NC(=O)[C@H](C)NC(=O)[C@H](CO)NC(=O)[C@H](CC(C)C)NC(=O)[C@H](CCC(=O)O)NC(=O)[C@@H](NC(=O)[C@@H]1CCCN1C(=O)[C@@H](NC(=O)[C@H](CO)NC(=O)[C@H](CO)NC(=O)[C@H](C)NC(=O)[C@H](CCCCN)NC(=O)[C@@H]1CCCN1C(=O)[C@@H](NC(=O)[C@@H](N)CCCCN)[C@@H](C)CC)C(C)C)[C@@H](C)O)C(=O)N[C@@H](CO)C(=O)N[C@H](C(=O)N[C@@H](CC(C)C)C(=O)N[C@@H](Cc1ccc(O)cc1)C(=O)N[C@@H](CC(C)C)C(=O)N[C@@H](C)C(=O)N[C@@H](C)C(=O)N[C@@H](C)C(=O)N[C@@H](C)C(=O)N[C@@H](CC(C(=O)O)C(=O)O)C(=O)N1CCC[C@H]1C(=O)N[C@@H](CCCNC(=N)N)C(=O)N[C@@H](CCCNC(=N)N)C(=O)N[C@@H](C)C(=O)N[C@H](C(=O)N[C@@H](C)C(=O)N[C@@H](C)C(=O)N[C@@H](CC(C)C)C(N)=O)C(C)C)[C@@H](C)O) [eBGa1, modular BMP-2/OCN peptide with one Gla residue] | 29.9±2 | – | –
